We go through one molecule from paper PMC6639057 (Investigational new drugs, 2018).

Each structure is given as a SMILES string. “Also recorded” adds a separate entry of the source.

Experiment [1] deals with breast cancer cell lines with TP53 loss of function mutations. The settings on record: cited from earlier work.
Experiment [2] deals with taxane-resistant triple-negative breast cancer. Put plainly: Tumor response, dose-expansion TNBC cohort. Type of experiment: in vivo, human.
The test system of a further experiment is p-histone H3. The settings on record: not measured in this study; no reference given; cited from earlier work.
The subject of experiment [3] is cell lines from a variety of tumor types including several that were resistant to paclitaxel. The settings on record: preclinical; cited from earlier work.
[4] abbreviates: Central read, RECIST 1.1, expansion 40 mg + G-CSF, TNBC (n = 14).
Setting [5] is: Local read, RECIST 1.0, expansion 40 mg + G-CSF, TNBC (n = 14).

`Cc1csc(-c2nnc(Nc3ccc(Oc4ncccc4-c4ccnc(N)n4)cc3)c3ccccc23)c1` [AMG 900]: the “Sensitivity to AMG 900 compared with cell lines without such mutations” value in experiment [1] was “greater sensitivity”. Further, the “Tumor response, one patient with TNBC” value in experiment [2] (40 mg + G-CSF, RECIST 1.0 (local read)) was “partial response per RECIST 1.0 (local read) that was not confirmed per RECIST 1.1 (central read)”. Moreover, the “Progression-free survival, median (80% CI)” value in experiment [2] (Central read, RECIST 1.1, Kaplan-Meier, expansion 40 mg + G-CSF, TNBC (n = 14)) is given as 7.6 (4.1–23.6) weeks. In addition, in experiment [2] (setting [4]), the “Best overall response: Complete response” value is on record as 0 Patients (%), the “Best overall response: Not evaluable (postbaseline scan not readable)” value is 3 (21) Patients (%), the “Best overall response: Partial response” value was 0 Patients (%) and the “Best overall response: Progressive disease” value was 4 (29) Patients (%). In experiment [2] (setting [4]), the “Best overall response: Stable disease” value is given as 7 (50) Patients (%). Further, in experiment [2] (setting [5]), the “Best overall response: Complete response” value was 0 Patients (%), the “Best overall response: Not evaluable (postbaseline scan not readable)” value was 3 (21) Patients (%), the “Best overall response: Partial response” value is 1 (7) Patients (%) and the “Best overall response: Progressive disease” value is listed as 5 (36) Patients (%). The “Best overall response: Stable disease” value in experiment [2] (setting [5]) is recorded as 5 (36) Patients (%). Moreover, the Objective responses entry in experiment [2] (RECIST 1.1 (central read), TNBC) is “No objective responses; also recorded: No patients with TNBC had an objective response”. Further, in experiment [2] (RECIST 1.1 (central read), TNBC (7 of 14)), the “Died or had progressive disease” value is 50.0%. Further, in experiment [2] (RECIST 1.1, TNBC (7 of 14)), the “Stable disease as best overall tumor response” value was 50.0%. The “50% inhibitory concentration for the in vivo inhibition of p-histone H3” value in the experiment with p-histone H3 is reported as 273 ng/mL. Also, the “Proliferation of tumor cell lines” value in experiment [3] is “inhibited the proliferation”.
